Results from patent publication US12319967B2, “Methods and compositions for diagnosing and treating prostate cancer based on long noncoding RNA overlapping the LCK gene that regulates prostate cancer cell growth” (University of Virginia Patent Foundation, priority 2019, dated 2025).
“Also recorded” adds a separate entry of the source. Where a SMILES comes first, the peptide text is derived from it. The star is where a group is joined. Cbz = O=C(OCc1ccccc1)*

Experiments:
Assay type in all cases: cell-based, human
[1] = tested on: HULLK; test: qPCR of HULLK (LCK 3'UTR / exon 13) transcript levels in response to hormone and AR, p300 or Brd4 inhibition
Protocol: (§1) FIGS. 2A through 2E illustrate that HULLK is an AR-regulated lncRNA. […] LNCaP and C42 cells were transduced with two independent shRNAs to LCK and treated with 0-1 nM R1881. RNA was collected on Day 4 and LCK transcript levels were determined using LCK primers targeting the 3′UTR. […] LNCaP and C42 cells were seeded for 48 hrs, and then, treated with 1 nM R1881 in the presence or absence of 10 μM enzalutamide. RNA was collected 24 hrs after treatment and LCK transcript levels were determined by qPCR using LCK primers targeting the 3′UTR. C4-2, DU145, and PC3 cells were seeded in CSS media for 48 hrs, and then, treated with 1 nM R1881 for 16 hrs. RNA was collected and LCK transcript levels were determined using LCK primers targeting the 3′UTR. […] FIG. 2E illustrates that Brd4 inhibition reduces the hormone induction of HULLK, n=3. LNCaP, C42, or Jurkat cells were seeded for 48 hrs in the appropriate growth media, and then, treated with 1 nM R1881 in the presence or absence of 0.3 μM A-485 or 0.1 μM JQ1. RNA was collected 24 hrs after treatment and LCK transcript levels were determined by qPCR using LCK primers targeting exon 13 or 3′UTR. PSA and TMPRSS2 transcripts were determined to verify the efficacy of p300 and Brd4 inhibition.
FIGS. 7A and 7B illustrate the regulation of HULLK by the AR in breast cancer cells. […] LNCaP, MCF7, BT549, and MDA-MD-231 cells were seeded in the appropriate growth media, and whole cell lysates were collected 48 hrs later and blotted for AR21 and ERK1/2. […] MCF7, BT549, and MDA-MB-231 cells were seeded in CSS media for 48 hrs, and then, treated with 1 nM R1881 for 16 hrs. RNA was collected and LCK transcript levels were determined using LCK primers targeting the 3′UTR, n=3.
Cell Culture and Reagents. LNCaP and C4-2 cells (a gift from Dr. L. W. K. Chung) were grown in DMEM:F12 (Invitrogen) with 5% Non-Heat-Inactivated serum (Gemini) and 1% Insulin-Transferrin-Selenium-Ethanolamine (ThermoFisher). CWR22Rv1 (Rv1), VCaP, PC3 (gifts from Drs. Steven Balk, Karen Knudsen, and Chung, respectively), WMPY-1 (ATCC), MCF7, BT549 and MDA-MB-231 (gifts from Dr. Amy Bouton) were grown in DMEM (Invitrogen) with 10% Heat-Inactivated serum. DU145 (a gift from Dr. Chung), PANC1 (a gift from Dr. J. Thomas Parsons), HeLa and Jurkat cells (gifts from Dr. Tim Bender) were grown in RPMI-1640 (Invitrogen) with 10% Heat-Inactivated serum. LHS cells (a gift from Dr. William Hahn) were grown in ProstaLife Epithelial Cell Medium (Lifeline). RWPE-1 (ATCC) cells were grown in Keratinocyte-Serum-Free Media (Invitrogen). For growth and RNA experiments, phenol-red free DMEM:F12 media with 5% Charcoal-Stripped Serum (CSS) (Gemini) was used.
RNA Isolation, qPCR and ddPCR: RNA was collected using TRIzol and quantitated using a NanoDrop 2000 UV-Vis Spectrophotometer (ThermoFisher). cDNA was synthesized using Superscript IV VILO cDNA synthesis kit (Invitrogen). Quantitative real-time PCR (qPCR) was performed as previously described (17,18). Droplet digital PCR (ddPCR) was executed according to the manufacturer's protocol (Bio-Rad).
To assess whether this lncRNA is modulated by hormone, transcript levels of this lncRNA were quantified by qPCR using 3′UTR primers in LNCaP and C4-2 cells transduced in the presence of increasing concentrations of R1881 (FIG. 2A). […] This increase was inhibited in the presence of two independent LCK shRNAs in both cell lines.
This hormone regulation was confirmed by measuring transcript amounts in LNCaP and C4-2 cells treated with vehicle or R1881 in the presence or absence of the anti-androgen enzalutamide (FIG. 2B). As expected, there was an 8-fold and 12-fold R1881-induced increase in LCK 3′UTR transcript levels in LNCaP and C4-2 cells, respectively. […] Androgen deprivation influenced message levels negligibly in LNCaP cells, but decreased transcript amounts of this lncRNA by approximately 2.9-fold in C4-2 cells (FIG. 2B, C4-2 vehicle vs. media). […]

[2] = tested on: PSA and TMPRSS2 transcripts; test: qPCR of PSA and TMPRSS2 transcripts to verify efficacy of p300 inhibition; conditions: 0.3 μM A-485 + 1 nM R1881
Protocol: as §1, with “inhibition. […]” for “inhibition.”

[3] = tested on: p53; test: Western blot after proteasome inhibition with MG132; conditions: LNCaP cells; 10 μM MG132
Protocol: (§2) FIGS. 1A to 1D illustrate the discovery of a novel lncRNA in prostate cancer cells. […] LCK protein was immunoprecipitated from 1 mg cell lysate from LNCaP, C4-2, and Jurkat cells cultured in the appropriate growth media for 48 hrs and treated with 1 nM R1881 or starved of hormone for 24 hrs, separated by 10% SDS-PAGE, and immunoblotted with LCK antibodies targeting the amino- and carboxy-terminals. Representative blots are shown, n=3. […] LNCaP cells were seeded and treated with 10 μM MG132 in the presence or absence of R1881 for the indicated timepoints. Cell lysates were blotted for LCK (c-terminal), LCK (n-terminal), p53, ERK1/2, Ran, and Histone H3. Representative blots are shown, n=3. Representative gel is shown, n=3. LNCaP cells were grown in the absence or presence of 1 nM R1881 for 24 hrs. RNA was collected using the Qiagen RNeasy kit. […]
(§3) To determine whether the lack of LCK expression was due to proteasomal degradation, LCK protein levels were examined in the presence of the proteasome inhibitor MG132 (FIG. 18). […] Furthermore, no truncated forms of LCK were detected when the whole western blot membrane was probed from 75 kD to 10 kD with either c- or n-terminal LCK antibodies. […] Therefore, a ncRNA may play a role in the growth effects measured in the kinome screen.

[4] = tested on: LCK protein; test: Western blot for LCK protein after proteasome inhibition with MG132; conditions: LNCaP cells treated with FBS, CSS, or 1 nM R1881; 10 μM MG132; any timepoint
Protocol: as §2, §3

[5] = tested on: LNCaP, C4-2, and Rv1 cells; test: CyQuant growth assay 7 days after viral transduction; conditions: day 7; for effect on cell growth: absence of hormone, Rv1 cells
Description: FIG. 5A illustrates the gene structure of LCK and location of each shRNA targeting LCK. MISSION shRNAs targeting human LCK (NM_005356) and the pLKO vector control were purchased from ThermoFisher. Each shRNA was validated for efficiency of LCK or HULLK knockdown in Jurkat and PCa cells by qPCR. (C) The results of CyQuant Assay measuring DNA content as a surrogate for cell number 7 days after shRNA transduction is shown in FIG. 5C. Growth was compared to untreated empty vector control and the values were averaged across biological replicates. Error bars represent standard error of the mean. The relative effect of four independent shRNAs on cell growth in LNCaP, C42, and Rv1 cells in the absence or presence of 0.05 nM R1881, n=3. FIG. 5D plots the data for the relative effect of HULLK overexpression on cell growth in LNCaP, C42, and Rv1 cells in the absence or presence of 0.05 nM R1881, n=3. Statistical analysis was performed using ANOVA and Tukey test.
CyQuant Growth Assays: Assay was performed as previously described (18). Briefly, shRNA or pLKO control virus was added to 1 μg/ml fibronectin-coated 96 well plates. Cells were plated in RPMI-1640 plus 5% CSS with vehicle, 0-0.05 nM R1881, and/or 10 μM Enzalutamide (Selleck Chemicals). Quantification was performed on Day 7 using a BioTek Synergy 2 plate reader.
To explore the functional role of HULLK in PCa, the effects of HULLK knockdown on PCa cell growth was examined. LNCaP, C4-2, and Rv1 cells were transduced with lentiviral particles expressing four independent shRNAs specific for LCK or pLKO empty vector control in the presence or absence of 0.05 nM R1881. Two shRNAs were targeting the carboxy-terminal of LCK (shLCK-3 and shLCK-4) and should decrease HULLK levels; and two shRNAs were directed toward the amino-terminal (shLCK-1 and shLCK-2) and should not affect HULLK expression (FIG. 5A). […] As a control, all four shRNAs efficiently knocked LCK down 60-90% in Jurkat cells. Seven days following viral transduction, cellular growth was measured using CyQuant, which uses DNA content as a surrogate for cell number. In the absence of hormone, the four shRNAs had no dramatic effects on growth in LNCaP or C4-2 cells (FIG. 5C).
The complement experiment of evaluating the effects of overexpressing HULLK on cell growth was also performed. LNCaP, C4-2, and Rv1 cells were transduced with lentivirus expressing either vector or HULLK constructs in the presence or absence of 0.05 nM R1881, and proliferation was calculated seven days following viral transduction.

[6] = tested on: AR; test: AR protein and message levels 48 hrs after HULLK knockdown or overexpression; conditions: LNCaP and C4-2 cells; 48 hrs after transduction
Protocol: LNCaP and C4-2 cells were transduced with vector, shLCK (n-term), or shLCK (c-term) in the appropriate growth media, and whole cell lysates were collected 48 hrs later and blotted for AR21 and ERK1/2, n=3. […] LNCaP and C4-2 cells were transduced with vector or HULLK in the appropriate growth media, and whole cell lysates were collected 48 hrs later and blotted for AR21 and α-tubulin, n=3. RNA was collected and AR transcript levels were determined using AR primers targeting the DNA binding domain, n=3.
Conversely, studies were conducted to determine whether HULLK modulates AR expression. LNCaP and C4-2 cells were transduced with vector, HULLK, or shRNAs targeting LCK (n-term) (FL-LCK) or LCK (c-term) (HULLK), and AR protein and message levels were examined 48 hrs after transduction.

CNC(=O)Nc1ccc2c(c1)CC[C@@]21OC(=O)N(CC(=O)N(Cc2ccc(F)cc2)[C@@H](C)C(F)(F)F)C1=O [A-485]
effect on hormone-induced increase in HULLK transcript levels ([1]; 0.3 μM A-485 + 1 nM R1881, 24 hrs): significantly opposed the hormone-induced increase | effect on HULLK expression, inhibitor alone ([1]; 0.3 μM A-485 without R1881, LNCaP, C4-2, Jurkat cells): negligible effects | PSA and TMPRSS2 message in the presence of hormone and p300 inhibitor [2]: sufficiently blocking its target

CNC(=O)c1ccc(N2C(=S)N(c3ccc(C#N)c(C(F)(F)F)c3)C(=O)C2(C)C)cc1F [Enzalutamide]
effect on hormone-mediated increase in LCK 3'UTR transcript (HULLK) ([1]; LNCaP and C4-2 cells, 1 nM R1881 + 10 μM enzalutamide, 24 hrs): blocked the hormone-mediated increase; also recorded: blocks the androgen-induced expression of HULLK

Cc1sc2c(c1C)C(c1ccc(Cl)cc1)=N[C@@H](CC(=O)OC(C)(C)C)c1nnc(C)n1-2 [JQ1]
HULLK expression in the presence of hormone and JQ1 compared to hormone alone ([1]; 0.1 μM JQ1 + 1 nM R1881, 24 hrs): significantly decreased

CC(C)C[C@@H](C=O)NC(=O)[C@H](CC(C)C)NC(=O)[C@H](CC(C)C)NC(=O)OCc1ccccc1 [MG132] (Cbz-Leu-Leu-Leu-aldehyde)
p53 protein level [3]: elevated | LCK protein detection [4]: still not observed

HULLK: Hormone Upregulated lncRNA within LCK, overexpressed from lentiviral expression vector PLX301
proliferation of HULLK-overexpressing cells compared to vector control cells ([5]; 0.05 nM R1881, LNCaP, C4-2, and Rv1 cells): significantly increased proliferation | growth of HULLK-overexpressing cells versus vector-expressing cells ([5]; androgen-deprived media, LNCaP, C4-2, and Rv1 cells): did not provide a growth advantage | AR expression after overexpression of HULLK [6]: not notably altered

shLCK-3: shRNA targeting the carboxy-terminal of LCK (HULLK), nucleotide sequence SEQ ID NO: 25 (CCGGGGGATCCTGCTGACGGAAATTCTCGAGAATTTCCGTCAGCAGGATCCCTTTTTG)
effect on cell growth [5]: statistically significant decrease

shLCK-4: shRNA targeting the carboxy-terminal of LCK (HULLK), nucleotide sequence SEQ ID NO: 26 (CCGGTCACATGGCCTATGCACATATCTCGAGATATGTGCATAGGCCATGTGATTTTTG)
effect on cell growth [5]: statistically significant decrease
